Test results from patent publication US20230406885A1, “CYCLIC PEPTIDES FOR TRAPPING INTERLEUKIN-1 BETA” (MERCK SHARP & DOHME LLC, priority 2022, published 2023).
*1 amine or outer side, *2 acyl side, *3 side chain or, on linkers, in order; H or OH if unused. Where a SMILES comes first, the peptide text is derived from it. [ ]: non-standard residue; d: D form. TyrEtNAc = L-tyrosine O-ethyl acetamide, (S)-3-(4-(2-acetamidoethoxy)phenyl)-2-aminopropanoic acid, CC(=O)NCCOc1ccc(C[C@H](N[*:1])C(=O)[*:2])cc1; 3AzaPhe4AcPip = (S)-3-(6-(4-acetylpiperazin-1-yl)pyridin-3-yl)-2-aminopropanoic acid, CC(=O)N1CCN(c2ccc(C[C@H](N[*:1])C(=O)[*:2])cn2)CC1; 3Pal4Ph4CO2H = (S)-4-(5-(2-amino-2-carboxyethyl)pyridin-2-yl)benzoic acid, O=C([C@H](Cc1ccc(-c2ccc(C(=O)[*:3])cc2)nc1)N[*:1])[*:2]; Phe(4-(4-Ac-piperazinyl)) = CC(=O)N1CCN(c2ccc(C[C@H](N)C(=O)O)cc2)CC1; Pro(trans-4-NH2) = O=C([C@@H]1C[C@@H](N[*:3])CN1[*:1])[*:2]; Bip(4'-COOH) = N[C@@H](Cc1ccc(-c2ccc(C(=O)O)cc2)cc1)C(=O)O; 1Nal(3S-Me) = C[C@@H](c1cccc2ccccc12)[C@H](N)C(=O)O; Ala(indolin-1-yl) = N[C@@H](CN1CCc2ccccc21)C(=O)O; hPhe(4-CF3) = N[C@@H](CCc1ccc(C(F)(F)F)cc1)C(=O)O; Trp(6-Cl) = N[C@@H](Cc1c[nH]c2cc(Cl)ccc12)C(=O)O; Phe(4-COOH) = N[C@@H](Cc1ccc(C(=O)O)cc1)C(=O)O; Trp(6-F) = N[C@@H](Cc1c[nH]c2cc(F)ccc12)C(=O)O; Trp(7-aza) = N[C@@H](Cc1c[nH]c2ncccc12)C(=O)O; X14 = C[N+](C)(C)CC[C@@H](N[*:1])C(=O)[*:2]; h3Pal(5-CN) = N#Cc1cncc(CC[C@H](N)C(=O)O)c1; Pro(4R-NH2) = N[C@H]1CN[C@H](C(=O)O)C1; AEF = NCCOc1ccc(C[C@H](N)C(=O)O)cc1; hTyr = N[C@@H](CCc1ccc(O)cc1)C(=O)O; hCha = N[C@@H](CCC1CCCCC1)C(=O)O; 4Pal = N[C@@H](Cc1ccncc1)C(=O)O; dDab = NCC[C@@H](N)C(=O)O; Orn = NCCC[C@H](N)C(=O)O; dNMeA = CN[C@H](C)C(=O)O; Dab = NCC[C@H](N)C(=O)O; Dap = NC[C@H](N)C(=O)O

Tests used:
[1] = biological target: T1, Recombinant human IL-1β (Homo sapiens, UniProt P01584); assay: IL-6 assay in MRC5 cells: inhibition of IL-1β induced IL-6 secretion (AlphaLISA); assay type: cell-based; conditions: inhibition of IL-1β induced IL-6 secretion in MRC5 cells; read-out: MRC5 IC50
T1 construct: purchased BioLegend 579404
T1 sequence (P01584 117-269): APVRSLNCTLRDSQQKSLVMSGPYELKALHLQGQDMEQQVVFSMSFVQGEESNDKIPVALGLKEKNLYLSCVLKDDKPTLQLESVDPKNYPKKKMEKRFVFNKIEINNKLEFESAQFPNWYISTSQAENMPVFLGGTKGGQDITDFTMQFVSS
Outline: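 IL-1β at 2×EC80 in seeding medium (EMEM, 0.025% BSA) preincubated 1 h at ambient temperature with compound, then 3000 MRC5 cells/well added and incubated overnight at 37 °C, 5% CO2. IL-6 in conditioned medium quantified by AlphaLISA; IC50 from 4-parameter logistic fit.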

[2] = biological target: Recombinant human IL-1β (BioLegend 579404) (human, UniProt P01584 117-269); assay: cell-based or functional assay

Molecule | IC50 [1] [pM] | MRC5 IC50 [2] [pM]
CC(=O)N1CCN(c2ccc(C[C@@H]3NC(=O)[C@H](CCC4CCCCC4)NC(=O)[C@@H](C)NC(=O)[C@H](CC(C)C)NC(=O)[C@H](CN)NC(=O)[C@H](Cc4ccc(-c5ccc(C(=O)O)cc5)cc4)NC(=O)CNC(=O)[C@@H](C)N(C)C(=O)[C@H](CC(=O)O)NC(=O)[C@H]([C@@H](C)c4cccc5ccccc45)NC(=O)[C@@H]4C[C@@H](N)CN4C(=O)CNC(=O)[C@H](Cc4ccc(C(=O)O)cc4)NC(=O)[C@H](Cc4c[nH]c5ccccc45)NC3=O)cc2)CC1 [Example 206] (cyclo([Phe(4-(4-Ac-piperazinyl))]W[Phe(4-COOH)]G[Pro(4R-NH2)][1Nal(3S-Me)]D[dNMeA]G[Bip(4'-COOH)][Dap]L[dA][hCha])) | 15 | –
CC(=O)N1CCN(c2ccc(C[C@@H]3NC(=O)[C@H](CCC4CCCCC4)NC(=O)[C@@H](C)NC(=O)[C@H](CC(C)C)NC(=O)[C@H](CCCCN)NC(=O)[C@H](Cc4ccc(-c5ccc(C(=O)O)cc5)cc4)NC(=O)CNC(=O)[C@@H](C)N(C)C(=O)[C@H](CC(=O)O)NC(=O)[C@H]([C@@H](C)c4cccc5ccccc45)NC(=O)[C@@H]4C[C@@H](N)CN4C(=O)CNC(=O)[C@H](Cc4ccc(C(=O)O)cc4)NC(=O)[C@H](Cc4c[nH]c5ccccc45)NC3=O)cc2)CC1 [Example 207] (cyclo([Phe(4-(4-Ac-piperazinyl))]W[Phe(4-COOH)]G[Pro(4R-NH2)][1Nal(3S-Me)]D[dNMeA]G[Bip(4'-COOH)]KL[dA][hCha])) | 11 | –
CC(=O)NCCCC[C@@H]1NC(=O)[C@H](Cc2ccc(-c3ccc(C(=O)O)cc3)cc2)NC(=O)CNC(=O)[C@@H](C)N(C)C(=O)[C@H](CC(=O)O)NC(=O)[C@H]([C@@H](C)c2cccc3ccccc23)NC(=O)[C@@H]2C[C@@H](N)CN2C(=O)CNC(=O)[C@H](Cc2ccc(C(=O)O)cc2)NC(=O)[C@H](Cc2c[nH]c3ccccc23)NC(=O)[C@H](Cc2ccc(N3CCN(C(C)=O)CC3)cc2)NC(=O)[C@H](CCc2cncc(C#N)c2)NC(=O)[C@@H](C)NC(=O)[C@H](CC(C)C)NC1=O [Example 208] (cyclo([Phe(4-(4-Ac-piperazinyl))]W[Phe(4-COOH)]G[Pro(4R-NH2)][1Nal(3S-Me)]D[dNMeA]G[Bip(4'-COOH)]K(Ac)L[dA][h3Pal(5-CN)])) | 18 | –
CC(=O)N1CCN(c2ccc(C[C@@H]3NC(=O)[C@H](CCC4CCCCC4)NC(=O)[C@@H](C)NC(=O)[C@H](CC(C)C)NC(=O)[C@H](CCCN)NC(=O)[C@H](Cc4ccc(-c5ccc(C(=O)O)cc5)cc4)NC(=O)CNC(=O)[C@@H](C)N(C)C(=O)[C@H](CC(=O)O)NC(=O)[C@H]([C@@H](C)c4cccc5ccccc45)NC(=O)[C@@H]4C[C@@H](N)CN4C(=O)CNC(=O)[C@H](Cc4ccc(C(=O)O)cc4)NC(=O)[C@H](Cc4c[nH]c5ccccc45)NC3=O)cc2)CC1 [Example 209] (cyclo([Phe(4-(4-Ac-piperazinyl))]W[Phe(4-COOH)]G[Pro(4R-NH2)][1Nal(3S-Me)]D[dNMeA]G[Bip(4'-COOH)][Orn]L[dA][hCha])) | 9 | –
CC(=O)NCCOc1ccc(C[C@@H]2NC(=O)[C@H](CCC3CCCCC3)NC(=O)[C@@H](CCN)NC(=O)[C@H](CO)NC(=O)[C@H](Cc3c[nH]c4ncccc34)NC(=O)[C@H](Cc3ccc(-c4ccc(C(=O)O)cc4)cc3)NC(=O)CNC(=O)[C@@H](C)N(C)C(=O)[C@H](CC(=O)O)NC(=O)[C@H]([C@@H](C)c3cccc4ccccc34)NC(=O)[C@@H]3C[C@@H](N)CN3C(=O)CNC(=O)[C@H](Cc3ccc(C(=O)O)cc3)NC(=O)[C@H](Cc3c[nH]c4cc(Cl)ccc34)NC2=O)cc1 [Example 210] (cyclo([AEF](Ac)[Trp(6-Cl)][Phe(4-COOH)]G[Pro(4R-NH2)][1Nal(3S-Me)]D[dNMeA]G[Bip(4'-COOH)][Trp(7-aza)]S[dDab][hCha])) | 20 | –
CC(=O)NCCOc1ccc(C[C@@H]2NC(=O)[C@H](CCc3ccc(O)cc3)NC(=O)[C@@H](CCN)NC(=O)CNC(=O)[C@H](CN3CCc4ccccc43)NC(=O)[C@H](Cc3ccc(-c4ccc(C(=O)O)cc4)cc3)NC(=O)CNC(=O)[C@@H](C)N(C)C(=O)[C@H](CC(=O)O)NC(=O)[C@H]([C@@H](C)c3cccc4ccccc34)NC(=O)[C@@H]3C[C@@H](N)CN3C(=O)CNC(=O)[C@H](Cc3ccc(C(=O)O)cc3)NC(=O)[C@H](Cc3c[nH]c4cc(F)ccc34)NC2=O)cc1 [Example 211] (cyclo([AEF](Ac)[Trp(6-F)][Phe(4-COOH)]G[Pro(4R-NH2)][1Nal(3S-Me)]D[dNMeA]G[Bip(4'-COOH)][Ala(indolin-1-yl)]G[dDab][hTyr])) | 27 | –
CC(=O)NCCOc1ccc(C[C@@H]2NC(=O)[C@H](CCC3CCCCC3)NC(=O)[C@@H](CCN)NC(=O)[C@H](CO)NC(=O)[C@H](Cc3c[nH]c4ncccc34)NC(=O)[C@H](Cc3ccc(-c4ccc(C(=O)O)cc4)cc3)NC(=O)CNC(=O)[C@@H](C)N(C)C(=O)[C@H](CC(=O)O)NC(=O)[C@H]([C@@H](C)c3cccc4ccccc34)NC(=O)[C@@H]3C[C@@H](N)CN3C(=O)CNC(=O)[C@H](Cc3ccc(C(=O)O)cc3)NC(=O)[C@H](Cc3c[nH]c4cc(F)ccc34)NC2=O)cc1 [Example 212] (cyclo([AEF](Ac)[Trp(6-F)][Phe(4-COOH)]G[Pro(4R-NH2)][1Nal(3S-Me)]D[dNMeA]G[Bip(4'-COOH)][Trp(7-aza)]S[dDab][hCha])) | 25 | –
CC(=O)NCCOc1ccc(C[C@@H]2NC(=O)[C@H](CCC3CCCCC3)NC(=O)[C@@H](CC[N+](C)(C)C)NC(=O)[C@H](CO)NC(=O)[C@H](Cc3c[nH]c4ncccc34)NC(=O)[C@H](Cc3ccc(-c4ccc(C(=O)O)cc4)cc3)NC(=O)CNC(=O)[C@@H](C)N(C)C(=O)[C@H](CC(=O)O)NC(=O)[C@H]([C@@H](C)c3cccc4ccccc34)NC(=O)[C@@H]3C[C@@H](N)CN3C(=O)CNC(=O)[C@H](Cc3ccc(C(=O)O)cc3)NC(=O)[C@H](Cc3c[nH]c4cc(F)ccc34)NC2=O)cc1 [Example 213] (cyclo([AEF](Ac)[Trp(6-F)][Phe(4-COOH)]G[Pro(4R-NH2)][1Nal(3S-Me)]D[dNMeA]G[Bip(4'-COOH)][Trp(7-aza)]S[X14][hCha])) | 18 | –
CC(=O)NCCOc1ccc(C[C@@H]2NC(=O)[C@H](CCC3CCCCC3)NC(=O)[C@@H](CCN)NC(=O)CNC(=O)[C@H](Cc3c[nH]c4ncccc34)NC(=O)[C@H](Cc3ccc(-c4ccc(C(=O)O)cc4)cc3)NC(=O)CNC(=O)[C@@H](C)N(C)C(=O)[C@H](CC(=O)O)NC(=O)[C@H]([C@@H](C)c3cccc4ccccc34)NC(=O)[C@@H]3C[C@@H](N)CN3C(=O)CNC(=O)[C@H](Cc3ccc(C(=O)O)cc3)NC(=O)[C@H](Cc3c[nH]c4ccccc34)NC2=O)cc1 [Example 214] (cyclo([AEF](Ac)W[Phe(4-COOH)]G[Pro(4R-NH2)][1Nal(3S-Me)]D[dNMeA]G[Bip(4'-COOH)][Trp(7-aza)]G[dDab][hCha])) | 20 | –
CC(=O)NCCOc1ccc(C[C@@H]2NC(=O)[C@H](CCc3ccc(O)cc3)NC(=O)[C@@H](CCN)NC(=O)CNC(=O)[C@H](Cc3c[nH]c4ncccc34)NC(=O)[C@H](Cc3ccc(-c4ccc(C(=O)O)cc4)cc3)NC(=O)CNC(=O)[C@@H](C)N(C)C(=O)[C@H](CC(=O)O)NC(=O)[C@H]([C@@H](C)c3cccc4ccccc34)NC(=O)[C@@H]3C[C@@H](N)CN3C(=O)CNC(=O)[C@H](Cc3ccc(C(=O)O)cc3)NC(=O)[C@H](Cc3c[nH]c4ccccc34)NC2=O)cc1 [Example 215] (cyclo([AEF](Ac)W[Phe(4-COOH)]G[Pro(4R-NH2)][1Nal(3S-Me)]D[dNMeA]G[Bip(4'-COOH)][Trp(7-aza)]G[dDab][hTyr])) | 24 | –
cyclo([TyrEtNAc]W[Phe(4-COOH)]G[Pro(trans-4-NH2)][1Nal(3S-Me)]D[dNMeA]G[Bip(4'-COOH)][4Pal][Dab][dA][hPhe(4-CF3)]) (SMILES CC(=O)NCCOc1ccc(C[C@@H]2NC(=O)[C@H](CCc3ccc(C(F)(F)F)cc3)NC(=O)[C@@H](C)NC(=O)[C@H](CCN)NC(=O)[C@H](Cc3ccncc3)NC(=O)[C@H](Cc3ccc(-c4ccc(C(=O)O)cc4)cc3)NC(=O)CNC(=O)[C@@H](C)N(C)C(=O)[C@H](CC(=O)O)NC(=O)[C@H]([C@@H](C)c3cccc4ccccc34)NC(=O)[C@@H]3C[C@@H](N)CN3C(=O)CNC(=O)[C@H](Cc3ccc(C(=O)O)cc3)NC(=O)[C@H](Cc3c[nH]c4ccccc34)NC2=O)cc1) [SEQ ID NO: 100] | – | 274
cyclo([3AzaPhe4AcPip]W[Phe(4-COOH)]G[Pro(trans-4-NH2)][1Nal(3S-Me)]D[dNMeA]G[Bip(4'-COOH)][4Pal][Dap][dA][h3Pal(5-CN)]) (SMILES CC(=O)N1CCN(c2ccc(C[C@@H]3NC(=O)[C@H](CCc4cncc(C#N)c4)NC(=O)[C@@H](C)NC(=O)[C@H](CN)NC(=O)[C@H](Cc4ccncc4)NC(=O)[C@H](Cc4ccc(-c5ccc(C(=O)O)cc5)cc4)NC(=O)CNC(=O)[C@@H](C)N(C)C(=O)[C@H](CC(=O)O)NC(=O)[C@H]([C@@H](C)c4cccc5ccccc45)NC(=O)[C@@H]4C[C@@H](N)CN4C(=O)CNC(=O)[C@H](Cc4ccc(C(=O)O)cc4)NC(=O)[C@H](Cc4c[nH]c5ccccc45)NC3=O)cn2)CC1) [SEQ ID NO: 1] | – | 36.5
cyclo([3Pal4Ph4CO2H]W[Phe(4-COOH)]G[Pro(trans-4-NH2)][1Nal(3S-Me)]D[dNMeA]G[3Pal4Ph4CO2H]W[Dap][dA][hTyr]) (SMILES C[C@@H]1C(=O)NCC(=O)N[C@@H](Cc2ccc(-c3ccc(C(=O)O)cc3)nc2)C(=O)N[C@@H](Cc2c[nH]c3ccccc23)C(=O)N[C@@H](CN)C(=O)N[C@H](C)C(=O)N[C@@H](CCc2ccc(O)cc2)C(=O)N[C@@H](Cc2ccc(-c3ccc(C(=O)O)cc3)nc2)C(=O)N[C@@H](Cc2c[nH]c3ccccc23)C(=O)N[C@@H](Cc2ccc(C(=O)O)cc2)C(=O)NCC(=O)N2C[C@H](N)C[C@H]2C(=O)N[C@@H]([C@@H](C)c2cccc3ccccc23)C(=O)N[C@@H](CC(=O)O)C(=O)N1C) [SEQ ID NO: 10] | – | 256
